Counter-ions that a name gives are not always drawn.
The molecules below were run on STING activation (IFNβ release) in iBMDMs (assay: IFNβ release ELISA after STING ligand (or LPS) stimulation, iBMDMs). Details: not given.
Format: cell-based, mouse
Summary of the method: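 iBMDMs were stimulated with a STING ligand such as 3′3′-cGAMP, or with LPS. Secreted IFNβ in culture medium was measured by commercial mouse or human IFNβ ELISA.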

With `Cc1cccc(-c2[nH]ncc2-c2ccc3ncccc3n2)n1` [RepSox] the “fold increase in IFN-β release” value was 0.99 fold.

Same assay, conditions: iBMDMs; 3′3′-cGAMP 10 μg/ml, 16 hours; compound 10 μM

Point of comparison: `Cc1cc(NC(=O)Nc2ccc(N(C)C)cc2)c2cc(F)cc(F)c2n1` [SB408124], “fold increase in IFN-β release” value 1.90 fold. Against it:
- O=C(O)/C(S)=C/c1c[nH]c2ccc(F)cc12 [PD 151746] — higher, 1.92 fold
- O=C(Nc1cccnc1)N1CCC(Cc2cccc(Oc3ccc(C(F)(F)F)cn3)c2)CC1 [PF-3845] — higher, 2.14 fold
- CN(c1ncccc1CNc1nc(Nc2ccc3c(c2)CC(=O)N3)ncc1C(F)(F)F)S(C)(=O)=O [PF-562271] — lower, 0.21 fold
- CS(=O)(=O)c1cccc(CNc2nc(Nc3ccc4c(c3)CCC(=O)N4)ncc2C(F)(F)F)c1 [PF-573228] — lower, 0.87 fold
- OCCn1cc(-c2cnc3nnn(Cc4ccc5ncccc5c4)c3n2)cn1 [PF-04217903] — lower, 1.49 fold
- CCc1cncnc1N1CCN(Cc2nc3ccc(C(F)(F)F)cc3[nH]2)CC1 [PF-4708671] — higher, 2.12 fold
- Cc1cnc(-c2cc(N3CCN(C(=O)CCS(C)(=O)=O)CC3)ncc2Cl)c(C)c1 [PF-5274857] — lower, 0.16 fold
- COc1ccccc1S(=O)(=O)Nc1ccc2c(c1)CN(C)C(=O)N2 [PFI-1 (PF-6405761)] — lower, 0.52 fold
- O=C(/C=C/c1ccc2ccccc2n1)c1ccncc1 [PFK15] — lower, 0.68 fold
- Cc1[nH]c(/C=C2\C(=O)Nc3ccc(S(=O)(=O)Cc4c(Cl)cccc4Cl)cc32)c(C)c1C(=O)N1CCC[C@@H]1CN1CCCC1 [PHA-665752] — lower, 0.43 fold
- CC(C)CC(=O)Nc1[nH]nc2c1CN(C(=O)C1CCN(C)CC1)C2(C)C [PHA-793887] — higher, 2.28 fold
- CCCc1ccc(OCC(=O)N(Cc2nc(-c3cccnc3)no2)C(C)C)cc1 [PI-1840] — lower, 0.60 fold
- COc1cc(OC)c(NC(=O)Nc2cc(C)on2)cc1Cl [PNU-120596] — lower, 0.12 fold
- CC(C)(C)n1nc(-c2ccc(Cl)cc2)c2c(N)ncnc21 [PP2] — lower, 0.14 fold
- N#CSc1cc(SC#N)c(N)nc1N [PR-619] — lower, 0.79 fold
- Br.COc1cc(Br)c(Nc2nc(-c3c(C)nc4ncccn34)cs2)c(Br)c1 [PTC-209 HBr] — lower, 0.27 fold
- COc1cc(Br)c(Nc2nc(-c3c(C)nc4ncccn34)cs2)c(Br)c1 [PTC-209] — higher, 2.11 fold
- CC(C)NCCCn1c(Sc2cc3c(cc2I)OCO3)nc2c(N)ncnc21 [PU-H71] — lower, 1.13 fold
- CCOC(=O)c1ccc(N2NC(=O)/C(=C/c3ccc([N+](=O)[O-])o3)C2=O)cc1 [PYR-41] — lower, 1.13 fold
- C1=C/COCc2cc(ccc2OCCN2CCCC2)Nc2nccc(n2)-c2cccc(c2)COC/1 [Pacritinib (SB1518), Pacritinib] — lower, 1.58 fold
- CC(=O)c1c(C)c2cnc(Nc3ccc(N4CCNCC4)cn3)nc2n(C2CCCC2)c1=O [Palbociclib (PD-0332991) HCl, Palbociclib] — lower, 0.94 fold
- CC(=O)O[C@H]1C[C@@H]2CC[C@@H]3[C@H](CC[C@@]4(C)[C@H]3C[C@H]([N+]3(C)CCCCC3)[C@@H]4OC(C)=O)[C@@]2(C)C[C@@H]1[N+]1(C)CCCCC1.[Br-].[Br-] [Pancuronium dibromide] — lower, 1.20 fold
- Cc1[nH]c2ccccc2c1CCNCc1ccc(/C=C/C(=O)NO)cc1 [Panobinostat (LBH589), Panobinostat] — lower, 0.61 fold
- Oc1cc(O)cc(/C=C/c2ccc(O)c(O)c2)c1 [Piceatannol] — lower, 0.42 fold
- COc1ccc(-c2nc3ccc(C4=NNC(=O)CC4C)cc3[nH]2)cc1 (centres unmarked) [Pimobendan] — lower, 1.79 fold
- O=C(NNc1ccccc1)c1ccncc1 [PluriSln #1 (NSC 14613)] — lower, 0.62 fold
- Nc1cccc2c1C(=O)N(C1CCC(=O)NC1=O)C2=O (centres unmarked) [Pomalidomide] — higher, 2.12 fold
- C#CCC(Cc1cnc2nc(N)nc(N)c2n1)c1ccc(C(=O)N[C@@H](CCC(=O)O)C(=O)O)cc1 (some centres unmarked) [Pralatrexate] — higher, 4.31 fold
- CCCN[C@H]1CCc2nc(N)sc2C1 [Pramipexole] — higher, 2.07 fold
- CC(C)NCC(O)COc1cccc2ccccc12 (centres unmarked) [Propranolol HCl] — higher, 2.07 fold
- CCc1nc(N)nc(N)c1-c1ccc(Cl)cc1 [Pyrimethamine] — higher, 5.22 fold
- CC(C)(C)c1cc(NC(=O)Nc2ccc(-c3cn4c(n3)sc3cc(OCCN5CCOCC5)ccc34)cc2)no1 [Quizartinib (AC220), Quizartinib] — lower, 0.91 fold
- O=C(NCc1cccc(O)c1)Nc1nc(-c2ccncc2)cs1 [RKI-1447] — higher, 2.41 fold
- Cc1nnc(C(=O)NC(C)(C)c2nc(C(=O)NCc3ccc(F)cc3)c(O)c(=O)n2C)o1 [Raltegravir (MK-0518), Raltegravir] — higher, 4.80 fold
- CCC(=O)NCC[C@@H]1CCc2ccc3c(c21)CCO3 [Ramelteon] — lower, 0.56 fold
- CNC(=C[N+](=O)[O-])NCCSCc1ccc(CN(C)C)o1 [Ranitidine] — higher, 2.87 fold
- C#CCN[C@@H]1CCc2ccccc21 [Rasagiline Mesylate] — lower, 1.77 fold
- O=C(NC(Cc1cc(=O)[nH]c2ccccc12)C(=O)O)c1ccc(Cl)cc1 (centres unmarked) [Rebamipide] — higher, 2.54 fold
- COc1cc(F)c(F)c(Nc2ccc(I)cc2F)c1NS(=O)(=O)C1(C[C@H](O)CO)CC1 [Refametinib (RDEA119, Bay 86-9766), Refametinib] — lower, 0.64 fold
- CO[C@H]1C[C@@H]2CC[C@@H](C)[C@@](O)(O2)C(=O)C(=O)N2CCCC[C@H]2C(=O)O[C@H]([C@H](C)C[C@@H]2CC[C@@H](OP(C)(C)=O)[C@H](OC)C2)CC(=O)[C@H](C)/C=C(\C)[C@@H](O)[C@@H](OC)C(=O)[C@H](C)C[C@H](C)/C=C/C=C/C=C/1C [Ridaforolimus (Deforolimus, MK-8669), Ridaforolimus] — lower, 0.58 fold
- COc1cc(OC)c(/C=C/S(=O)(=O)Cc2ccc(OC)c(NCC(=O)O)c2)c(OC)c1 [Rigosertib (ON-01910), Rigosertib] — lower, 0.96 fold
- Cc1c(C(=O)NN2CCCCC2)nn(-c2ccc(Cl)cc2Cl)c1-c1ccc(Cl)cc1 [Rimonabant] — lower, 0.81 fold
- O=C(NC[C@H]1CN(c2ccc(N3CCOCC3=O)cc2)C(=O)O1)c1ccc(Cl)s1 [Rivaroxaban] — lower, 0.54 fold
- CN(C)CCc1c[nH]c2ccc(Cn3cncn3)cc12 [Rizatriptan Benzoate] — higher, 2.85 fold
- COc1cc(C(=O)NC2CCN(C)CC2)ccc1Nc1ncc2c(n1)N(C1CCCC1)CC(F)(F)C(=O)N2C [Ro3280] — higher, 2.16 fold
- COc1ccc(C2CNC(=O)C2)cc1OC1CCCC1 (centres unmarked) [Rolipram] — lower, 1.85 fold
- COc1cc2c(cc1OC)[C@@H]1Cc3ccc(OC)c(OC)c3CN1CC2 [Rotundine] — lower, 0.54 fold
- CC(=O)OCC(=O)NCCCOc1cccc(CN2CCCCC2)c1 [Roxatidine Acetate HCl] — higher, 3.16 fold
- N#CC[C@H](C1CCCC1)n1cc(-c2ncnc3[nH]ccc23)cn1 [Ruxolitinib (INCB018424), Ruxolitinib] — lower, 0.20 fold
- Cc1nn(-c2ccccc2)c(C)c1/C=N/N1CCN(Cc2ccccc2)CC1 [SANT-1] — lower, 1.49 fold
- CCn1c(N)c(C(=O)NC)c(=O)c2ccc(C#C[C@@](C)(O)COC)nc21 [SAR131675] — lower, 1.13 fold
- C[S+]([O-])c1ccc(-c2nc(-c3ccc(F)cc3)c(-c3ccncc3)[nH]2)cc1 (centres unmarked) [SB203580] — lower, 0.35 fold
- O=C1NC(=O)C(c2ccccc2[N+](=O)[O-])=C1Nc1ccc(O)c(Cl)c1 [SB415286] — lower, 1.15 fold
- NC(=O)c1ccc(-c2nc(-c3ccccn3)c(-c3ccc4c(c3)OCO4)[nH]2)cc1 [SB431542] — lower, 0.78 fold
- O=C(Nc1ccccc1Br)N[C@@H]1CCN(c2ccc(C(F)(F)F)cn2)C1 [SB705498] — lower, 0.32 fold
- O=S(=O)(c1ccccc1)c1cnc2c(N3CCNCC3)cccc2c1 [SB742457] — lower, 0.65 fold
- Cc1ccc(C(=O)N(CCCN)[C@@H](c2oc3cc(Cl)ccc3c(=O)c2Cc2ccccc2)C(C)C)cc1 [SB743921] — lower, 1.16 fold
- O=S(=O)(CC1CS1)c1ccc(Oc2ccccc2)cc1 (centres unmarked) [SB-3CT] — lower, 0.49 fold
- O=C(NNc1nc2cc(F)ccc2n2cccc12)c1cnccn1 [SC144] — higher, 2.63 fold
- CC(C)N(CCCNC(=O)Nc1ccc(C(C)(C)C)cc1)C[C@H]1O[C@@H](n2cc(Br)c3c(N)ncnc32)[C@H](O)[C@@H]1O [SGC 0946] — the same, 1.90 fold
- Cc1cc(Nc2ccc(NC(=O)c3ccc(Nc4ccnc5ccccc45)cc3)cc2)nc(N)n1 [SGI-1027] — lower, 0.37 fold
- CN1CCC(CNc2ccc3ncc(-c4cccc(OC(F)(F)F)c4)n3n2)CC1 [SGI-1776 free base] — lower, 0.65 fold
- Oc1ccc(Nc2nc(-c3ccc(Cl)cc3)cs2)cc1 [SKI II] — lower, 0.49 fold
- O=C1NC(=O)/C(=C/c2cccc(C(F)(F)F)c2)S1 [SMI-4a] — lower, 0.84 fold
- CC(C)(C)c1cnc(CSc2cnc(NC(=O)C3CCNCC3)s2)o1 [SNS-032 (BMS-387032)] — lower, 1.01 fold
- Oc1c2ccccc2c2c3c(cccc13)N=N2 [SP600125] — higher, 3.35 fold
- O=C(Nc1cc(C(F)(F)F)ccc1N1CCCCC1)c1ccncc1 [SRPIN340] — higher, 2.38 fold
- O=C(Nc1ccccc1-c1cn2c(CN3CCNCC3)csc2n1)c1cnc2ccccc2n1 [SRT1720] — lower, 0.76 fold
- COc1c(C)c(C(=O)c2ccc(N)c(C(=O)[O-])c2)n2ccccc12.[Na+] [SSR128129E] — lower, 0.98 fold

— US11179412B2, “Methods of treating conditions involving elevated inflammatory response” (University of Pittsburgh—Of the Commonwealth System of …, priority 2017, dated 2021)
